{"source": "patent US8952024B2", "about": "“Herbicidal pyrimidone derivatives” (E I du Pont de Nemours and Company, priority 2009, dated 2015)", "format_in_all_cases": "in vivo", "key": {"[1]": {"test_system": "spring wheat (Triticum aestivum)", "experiment": "Test C plant response", "settings": "Preemergence, scale 0 to 100"}, "[2]": {"test_system": "pigweed (Amaranthus retroflexus)", "experiment": "Test C plant response", "settings": "Preemergence, scale 0 to 100"}, "[3]": {"test_system": "galium (catchweed bedstraw, Galium aparine)", "experiment": "Test C plant response", "settings": "Preemergence, scale 0 to 100"}, "[4]": {"test_system": "winter barley (Hordeum vulgare)", "experiment": "Test C plant response", "settings": "Preemergence, scale 0 to 100"}, "[5]": {"test_system": "buckwheat (wild buckwheat, Polygonum convolvulus)", "experiment": "Test C plant response", "settings": "Preemergence, scale 0 to 100"}, "wild oat (Avena fatua)": {"test_system": "wild oat (Avena fatua)", "experiment": "Test C plant response", "settings": "Preemergence, scale 0 to 100"}, "[6]": {"test_system": "field violet (Viola arvensis)", "experiment": "Test C plant response", "settings": "Preemergence, scale 0 to 100"}, "[7]": {"test_system": "blackgrass (Alopecurus myosuroides)", "experiment": "Test C plant response", "settings": "Preemergence, scale 0 to 100"}, "[8]": {"test_system": "windgrass (Apera spica-venti)", "experiment": "Test C plant response", "settings": "Preemergence, scale 0 to 100"}, "[9]": {"test_system": "spring barley (Hordeum vulgare)", "experiment": "Test C plant response", "settings": "Preemergence, scale 0 to 100"}, "[10]": {"test_system": "canarygrass (Phalaris minor)", "experiment": "Test C plant response", "settings": "Preemergence, 125 g ai/ha; scale 0 to 100"}, "[11]": {"test_system": "oilseed rape (Brassica napus)", "experiment": "Test C plant response", "settings": "Preemergence, scale 0 to 100"}, "[12]": {"test_system": "deadnettle (henbit deadnettle, Lamium amplexicaule)", "experiment": "Test C plant response", "settings": "Preemergence, scale 0 to 100"}, "[13]": {"test_system": "sprangletop (bearded (i.e. Brdd.) sprangletop, Leptochloa fascicularis)", "experiment": "Test E flooded paddy rice and weeds", "settings": "applied to paddy water, 21 days, scale 0 to 100", "outline": "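Plants grown in Tama silt loam (35:50:15 sand:silt:clay, 2.6% organic matter) in a greenhouse at 30/27° C day/night, 16-hour photoperiod, and treated at the 2.0 to 2.5-leaf stage. Pots were flooded to 3 cm and compound applied directly to paddy water. Visual 0–100 rating versus untreated controls after 21 days.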"}}}
{"smiles": "Cc1ccccc1-n1c(-c2ccccc2)ncc(C(=O)C2=C(O)CCCC2=O)c1=O", "note": "[Compound 12]", "values": [{"measurement": "Plant response rating: Wheat, Spring", "setting": "[1]; 62 g ai/ha", "result": 0}, {"measurement": "Plant response rating: Wheat, Spring", "setting": "[1]; 125 g ai/ha", "result": 0}, {"measurement": "Plant response rating: Wheat, Spring", "setting": "[1]; 16 g ai/ha", "result": 0}, {"measurement": "Plant response rating: Wheat, Spring", "setting": "[1]; 31 g ai/ha", "result": 0}, {"measurement": "Plant response rating: Pigweed", "setting": "[2]; 62 g ai/ha", "result": 50}, {"measurement": "Plant response rating: Pigweed", "setting": "[2]; 125 g ai/ha", "result": 65}, {"measurement": "Plant response rating: Pigweed", "setting": "[2]; 16 g ai/ha", "result": 0}, {"measurement": "Plant response rating: Pigweed", "setting": "[2]; 31 g ai/ha", "result": 0}, {"measurement": "Plant response rating: Galium", "setting": "[3]; 62 g ai/ha", "result": 35}, {"measurement": "Plant response rating: Galium", "setting": "[3]; 125 g ai/ha", "result": 35}, {"measurement": "Plant response rating: Galium", "setting": "[3]; 16 g ai/ha", "result": 0}, {"measurement": "Plant response rating: Galium", "setting": "[3]; 31 g ai/ha", "result": 0}, {"measurement": "Plant response rating: Barley, Winter", "setting": "[4]; 62 g ai/ha", "result": 0}, {"measurement": "Plant response rating: Barley, Winter", "setting": "[4]; 125 g ai/ha", "result": 0}, {"measurement": "Plant response rating: Barley, Winter", "setting": "[4]; 16 g ai/ha", "result": 0}, {"measurement": "Plant response rating: Barley, Winter", "setting": "[4]; 31 g ai/ha", "result": 0}, {"measurement": "Plant response rating: Buckwheat, Wild", "setting": "[5]; 62 g ai/ha", "result": 0}, {"measurement": "Plant response rating: Buckwheat, Wild", "setting": "[5]; 125 g ai/ha", "result": 40}, {"measurement": "Plant response rating: Buckwheat, Wild", "setting": "[5]; 16 g ai/ha", "result": 0}, {"measurement": "Plant response rating: Buckwheat, Wild", "setting": "[5]; 31 g ai/ha", "result": 0}, {"measurement": "Plant response rating: Oat, Wild", "setting": "wild oat (Avena fatua); 62 g ai/ha", "result": 0}, {"measurement": "Plant response rating: Oat, Wild", "setting": "wild oat (Avena fatua); 125 g ai/ha", "result": 0}, {"measurement": "Plant response rating: Oat, Wild", "setting": "wild oat (Avena fatua); 16 g ai/ha", "result": 0}, {"measurement": "Plant response rating: Oat, Wild", "setting": "wild oat (Avena fatua); 31 g ai/ha", "result": 0}, {"measurement": "Plant response rating: Field Violet", "setting": "[6]; 62 g ai/ha", "result": 0}, {"measurement": "Plant response rating: Field Violet", "setting": "[6]; 125 g ai/ha", "result": 0}, {"measurement": "Plant response rating: Field Violet", "setting": "[6]; 16 g ai/ha", "result": 0}, {"measurement": "Plant response rating: Field Violet", "setting": "[6]; 31 g ai/ha", "result": 0}, {"measurement": "Plant response rating: Blackgrass", "setting": "[7]; 62 g ai/ha", "result": 0}, {"measurement": "Plant response rating: Blackgrass", "setting": "[7]; 125 g ai/ha", "result": 0}, {"measurement": "Plant response rating: Blackgrass", "setting": "[7]; 16 g ai/ha", "result": 0}, {"measurement": "Plant response rating: Blackgrass", "setting": "[7]; 31 g ai/ha", "result": 0}, {"measurement": "Plant response rating: Windgrass", "setting": "[8]; 62 g ai/ha", "result": 40}, {"measurement": "Plant response rating: Windgrass", "setting": "[8]; 125 g ai/ha", "result": 40}, {"measurement": "Plant response rating: Windgrass", "setting": "[8]; 16 g ai/ha", "result": 20}, {"measurement": "Plant response rating: Windgrass", "setting": "[8]; 31 g ai/ha", "result": 20}, {"measurement": "Plant response rating: Barley, Spring", "setting": "[9]; 62 g ai/ha", "result": 0}, {"measurement": "Plant response rating: Barley, Spring", "setting": "[9]; 125 g ai/ha", "result": 0}, {"measurement": "Plant response rating: Barley, Spring", "setting": "[9]; 16 g ai/ha", "result": 0}, {"measurement": "Plant response rating: Barley, Spring", "setting": "[9]; 31 g ai/ha", "result": 0}, {"measurement": "Plant response rating: Canarygrass", "setting": "[10]", "result": 20}, {"measurement": "Plant response rating: Oilseed Rape", "setting": "[11]; 62 g ai/ha", "result": 30}, {"measurement": "Plant response rating: Oilseed Rape", "setting": "[11]; 125 g ai/ha", "result": 40}, {"measurement": "Plant response rating: Oilseed Rape", "setting": "[11]; 16 g ai/ha", "result": 0}, {"measurement": "Plant response rating: Oilseed Rape", "setting": "[11]; 31 g ai/ha", "result": 20}, {"measurement": "Plant response rating: Deadnettle", "setting": "[12]; 62 g ai/ha", "result": 90}, {"measurement": "Plant response rating: Deadnettle", "setting": "[12]; 125 g ai/ha", "result": 100}, {"measurement": "Plant response rating: Deadnettle", "setting": "[12]; 16 g ai/ha", "result": 35}, {"measurement": "Plant response rating: Deadnettle", "setting": "[12]; 31 g ai/ha", "result": 50}]}
{"smiles": "COc1ccc(-n2c(-c3ccccc3)ncc(C(=O)C3=C(O)CCCC3=O)c2=O)cc1OC", "note": "[Compound 218]", "values": [{"measurement": "Plant response rating, Sprangletop, Brdd., Flood", "setting": "[13]; 32 g ai/ha", "result": 65}, {"measurement": "Plant response rating, Sprangletop, Brdd., Flood", "setting": "[13]; 64 g ai/ha", "result": 70}, {"measurement": "Plant response rating, Sprangletop, Brdd., Flood", "setting": "[13]; 125 g ai/ha", "result": 70}, {"measurement": "Plant response rating, Sprangletop, Brdd., Flood", "setting": "[13]; 250 g ai/ha", "result": 95}]}
